Patent publication US11478466B2, “Small molecule promoting osteoblast differentiation” (Cornell University, priority 2019, dated 2022)
pEC50: −log10 of the molar value.

Tested on: alkaline phosphatase (ALP)
Details: for RFU Score Threshold ≥ 800 / Fluorescence Z Score Threshold ≥ 10 / NPA Score Threshold ≥ 5.0 (normalized percent activation): primary screen, 10 μM, C2C12, 4 days; for RFU Score Threshold ≥ 800: Ex 450/Em 580 nm, rank in brackets not taken; for Fluorescence Z Score Threshold ≥ 10: Z score on DMSO control wells; for NPA Score Threshold ≥ 5.0 (normalized percent activation): normalized against rhBMP4 positive and DMSO negative controls

Row | Compound | RFU Score Threshold ≥ 800 | Fluorescence Z Score Threshold ≥ 10 | NPA Score Threshold ≥ 5.0 (normalized percent activation) | pEC50 (read-out: Measured EC50, compounds validated in secondary screen, C2C12)
1 | c1ccc2c(c1)nc(NC1CCCC1)c1nncn12 [RU-0007138] | Below Threshold | 17.92 (10) | Below Threshold | –
2 | COC(=O)c1ccc(NC(=O)c2c3c(nn2C2CCS(=O)(=O)C2)CCC3)cc1 (stereo not shown) [RU-0159762] | 855 (22) | 21.33 (6) | Below Threshold | –
3 | CC1(C)C(=O)NCCN1C(=O)/C=C(/c1ccc(Cl)cc1)C(F)(F)F [RU-0213635] | 1170 (5) | 15.00 (14) | Below Threshold | –
4 | Cc1cc(C(=O)NC2(C#N)CC2)ccc1NC(=O)CC(C)C [RU-0213672] | 1040 (9) | 12.15 (20) | Below Threshold | –
5 | CCC(C)(C)C(=O)N1CCC(CO)(CCOc2ccccc2)CC1 [RU-0220454] | 811 (31) | Below Threshold | Below Threshold | –
6 | Cc1ccc(CN2CCN(Cc3ccccc3CO)CC2)n1-c1cccnc1 [RU-0221380] | 922 (13) | 16.89 (11) | Below Threshold | –
7 | CN1CCC2(CC1)CN(C(=O)COCC1CCCO1)CCCN2C (stereo not shown) [RU-0224115] | 900 (17) | Below Threshold | Below Threshold | –
8 | O=C(c1ccc2c(c1)OCO2)C1CCCN(C(=O)c2cnn(Cc3ccccc3)c2)C1 (stereo not shown) [RU-0227215] | 1310 (4) | 27.39 (4) | Below Threshold | –
9 | OCc1ccccc1-c1ccc(NC2CCCC2)nn1 [RU-0227303] | Below Threshold | 13.68 (18) | Below Threshold | –
10 | COc1cccc(C2CCN(c3ncnc4c3CCNC4)C2)c1OC (stereo not shown) [RU-0227959] | 815 (30) | Below Threshold | Below Threshold | –
11 | Cc1ccccc1N1CCN(C(=O)c2ccc(C#CC(C)(C)O)o2)C(C)C1 (stereo not shown) [RU-0228950] | 921 (14) | 15.58 (13) | Below Threshold | –
12 | COc1ccc(-n2c(Cc3cccnc3)n[nH]c2=O)c(C)c1 [RU-0230205] | 1060 (8) | 19.99 (7) | Below Threshold | –
13 | CCCc1ccc(-c2ccc(C(=O)N3C[C@@H](N)C[C@H]3C(=O)NC)cc2)cc1 [RU-0232318] | 804 (35) | Below Threshold | Below Threshold | –
14 | Cc1nc[nH]c1CN1CCOc2c(O)cc(-c3cccc(Cl)c3)cc2C1 [RU-0236543] | 821 (27) | Below Threshold | Below Threshold | –
15 | O[C@@H]1CNCC[C@H]1CNCc1ccccc1-c1ccccc1 [RU-0236855] | 810 (32) | Below Threshold | Below Threshold | –
16 | CSc1ncc(C(=O)NCc2cc(C)cc3c(C)c(C)[nH]c23)cn1 [RU-0239453] | 809 (33) | Below Threshold | Below Threshold | –
17 | CCC(OC)C(=O)NCc1ccc2[nH]c(-c3ccccc3F)c(C)c2c1 (stereo not shown) [RU-0244068] | 836 (26) | Below Threshold | Below Threshold | –
18 | Cc1ccc(OCCN(C)Cc2ccncc2)c(C)c1 [RU-0244443] | 818 (29) | Below Threshold | Below Threshold | –
19 | O=C(N[C@H]1CN[C@H](C(=O)NCCCn2ccnc2)C1)c1cccc(Cl)c1 [RU-0245007] | 993 (12) | 14.31 (17) | Below Threshold | –
20 | c1ccc(CC2CCN(Cc3cc4n(n3)CCCNC4)C2)cc1 (stereo not shown) [RU-0246723] | 873 (20) | 10.91 (23) | Below Threshold | –
21 | Cc1nc(CCN)cc(N2CCCC2c2nonc2C)n1 (stereo not shown) [RU-0250475] | 879 (19) | Below Threshold | Below Threshold | –
22 | CN(Cc1cccc2ncccc12)CC1CCOC1 (stereo not shown) [RU-0252111] | 1010 (10) | 16.48 (12) | Below Threshold | –
23 | CCCc1nc(C)c(CNC(=O)C2CCOC2)s1 (stereo not shown) [RU-0254439] | Below Threshold | 14.37 (16) | Below Threshold | –
24 | CCOC(=O)c1n[nH]cc1[C@@H]1C[C@H](NC(C)=O)C[C@H](CC(C)C)O1 [RU-0257787] | Below Threshold | 12.09 (21) | Below Threshold | –
25 | Cc1cccc(-c2ncc(CN3CCCC(Cn4ccnc4C)C3)cn2)c1 (stereo not shown) [RU-0261573] | 857 (21) | 10.31 (24) | Below Threshold | –
26 | CCNC(=O)N1CCc2c(cnc(C)c2-c2noc(-c3ccc(C)cc3)n2)C1 [RU-0265172] | 840 (25) | 18.70 (9) | Below Threshold | –
27 | N-(3-isoquinolin-5-ylbenzyl)propanamide [RU-0248250] | 1000 (11) | 24.29 (5) | Below Threshold | < 4.40
